“And” between values parts separate entries of the source, which are not always exact repeats. Equal values may be shown once. Read-outs that look alike come from different tables or passages of the source.
Legend:
[1] = test system: A549 cells expressing sgRNAs (NTC, DDB1, RBX1, UBE2G1); assay: Cell viability assay, A549 cells expressing non-targeting control or sgRNAs targeting DDB1, RBX1 or UBE2G1; format: cell-based, Homo sapiens; conditions: for CellTiter-Glo (ATP): raw signal; for IC50: Homo sapiens
Description: (§1) Seven hundred A549 cells or 1,000 HCT-116 cells in 50 µL of medium were plated per well in 384-well flat clear bottom white polystyrene TC-treated microplates (Corning, Corning, USA). After overnight attachment, cells were dosed with a serial dilution of HQ461 with a D300e digital dispenser (Tecan, Männedorf, Switzerland). Cell survival was measured 72 hr later using CellTiter-Glo luminescent cell viability assay kit (Promega, Madison, USA) following vendor instructions. Luminescence was recorded by EnVison multimode plate reader (PerkinElmer, Waltham, USA). IC50 was determined with GraphPad Prism using baseline correction (by normalizing to DMSO control), the asymmetric (five parameter) equation, and least squares fit.
Two sgRNAs per gene were chosen from the Brunello library for DDB1 (5’-[…]-3’ and 5’-[…]-3’), RBX1 (5’- […]-3’ and 5’-[…]-3’), and UBE2G1 (5’-[…]-3’ and 5’- […]-3’). Annealed sgRNA oligos were cloned into the lentiCRISPR v2 vector. Lentiviral packaging was performed by co-transfecting the resulting plasmids with psPAX2 (Addgene 12260) and pMD2.G (Addgene 12259) into 293 T cells. Media collected from transfected 293 T cells was used to infect A549 cells at MOI ~ 5 for 4 days. The resulting cells were tested for their sensitivity to HQ461 using methods describe in the previous session cell viability assay.

[2] = test system: A549 cells stably expressing 3xFLAG-CDK12 WT/G731E/G731R; assay: Cell viability assay, A549 cells stably expressing wild-type or G731E/R mutant CDK12; format: cell-based; conditions: Homo sapiens
Description: as §1
An ORF encoding CDK12 isoform 2 (NM_015083.3) was PCR amplified from A549 cDNA and cloned into a pCDNA3.1-N-3xFLAG vector which was derived from the pCDNA3.1 vector. G731E and G731R mutations in CDK12 were introduced by overlap extension PCR. After sequencing verification, wild-type and mutant 3xFLAG-CDK12 sequences were subcloned into lentiCas9-Blast (Addgene 52962) by replacing the Cas9 ORF with 3xFLAG-CDK12. The resulting lenti-EF1α−3xFLAG-CDK12-P2A-BSD WT/GE/GR constructs were packaged into lentiviral vectors to transduce A549 cells. Stable cell lines were obtained by selection with 20 µg/ml of blasticidin.

[3] = test system: CDK12 G731E or G731R knock-in A549 cells; assay: Cell viability assay, CDK12 G731E or G731R knock-in A549 cells; format: cell-based; conditions: Homo sapiens, four knock-in clones
Description: as §1
An sgRNA targeting CDK12 (5’-[…]-3’) was cloned into the pSpCas9(BB)−2A-eGFP (PX458) vector (Addgene 48138). For CDK12 G731E/R knock-in, 1 million A549 cells were nucleofected (using 4D-Nucleofector, Lonza, Basel, Switzerland) with PX458-sgCDK12 and single-stranded oligodeoxynucleotides (G731E: 5’-ttatatacttggccataggttccttctccaataatTTCaataatgtcaaacttgtccacacagcgtttcccccagtc-3’; G731R: 5’-ttatatacttggccataggttccttctccaataatGCGaataatgtcaaacttgtccacacagcgtttcccccagtc-3’). Afterwards, cells were exposed to 5 µM 0461 for 2 weeks to select for cells with CDK12 G731E/R knock-in. […]

[4] = test system: CCNK-luc reporter; assay: CCNK-luc degradation assay; format: cell-based, Homo sapiens; conditions: 8 hr
Description: The ORF for CCNK was fused with the firefly luciferase (luc) sequence and inserted into the pCDNA3.1 vector. For setting up cells for co-transfection, 0.6 million 293 T cells were seeded per well in 6-well plates and allowed to attach to plates overnight. These cells were then transfected with 50 ng of pCDNA3.1-3xFLAG-CDK12 kinase domain, 50 ng of pCDNA3.1-CCNK-luc, and 400 ng of the empty pCDNA3.1 vector. Twenty-four hours later, transfected cells were dissociated by trypsin digestion and then plated in 96-well white plates. After overnight attachments, cells were then treated with HQ461 and its analog derivatives for 8 hr followed by measurements of luciferase activity with Bright-Glo luciferase assay system (Promega, Madison, USA). Half maximal CCNK-degradation concentrations (DC50) of HQ461 and its active analogs were interpolated by curve fitting with GraphPad Prism using baseline correction (by normalizing to DMSO control), the asymmetric (five parameter) equation, and least squares fit.

## Cc1cccc(Nc2nc(CC(=O)Nc3ncc(C)s3)cs2)n1 [HQ461, 2-(2-((6-methylpyridin-2-yl)amino)thiazol-4-yl)-N-(5-methylthiazol-2-yl)acetamide]
[1]; A549 sgDDB1-1, HQ461 1.04e-6 M
  CellTiter-Glo (ATP): 266440 and 262730 and 269540
[1]; A549 sgDDB1-1, HQ461 1.84e-6 M
  CellTiter-Glo (ATP): 260200 and 241370 and 247600
[1]; A549 sgDDB1-1, HQ461 5e-5 M
  CellTiter-Glo (ATP): 103060 and 118120 and 131920
[1]; A549 sgDDB1-1, HQ461 1.16E-07 M
  CellTiter-Glo (ATP): 267930 and 251180 and 224010
[1]; A549 sgDDB1-1, HQ461 2.04E-07 M
  CellTiter-Glo (ATP): 317680 and 266950 and 274210
[1]; A549 sgDDB1-1, HQ461 3.52E-07 M
  CellTiter-Glo (ATP): 250370 and 237750 and 246820
[1]; A549 sgDDB1-1, HQ461 6.08E-07 M
  CellTiter-Glo (ATP): 264740 and 257780 and 224550
[1]; A549 sgDDB1-1, HQ461 6.80E-08 M
  CellTiter-Glo (ATP): 250520 and 230710 and 232990
[1]; A549 sgNTC, HQ461 1.04e-6 M
  CellTiter-Glo (ATP): 250120 and 267660 and 292550
[1]; A549 sgNTC, HQ461 1.84e-6 M
  CellTiter-Glo (ATP): 177290 and 247760 and 214770
[1]; A549 sgNTC, HQ461 2.88e-5 M
  CellTiter-Glo (ATP): 34040
[1]; A549 sgNTC, HQ461 5e-5 M
  CellTiter-Glo (ATP): 18410 and 24360 and 23900
[1]; A549 sgNTC, HQ461 1.16E-07 M
  CellTiter-Glo (ATP): 358110 and 293700 and 340660
[1]; A549 sgNTC, HQ461 2.04E-07 M
  CellTiter-Glo (ATP): 291450 and 300990 and 265430
[1]; A549 sgNTC, HQ461 3.52E-07 M
  CellTiter-Glo (ATP): 289350 and 289810 and 317840
[1]; A549 sgNTC, HQ461 6.08E-07 M
  CellTiter-Glo (ATP): 260230 and 280040 and 269860
[1]; A549 sgNTC, HQ461 6.80E-08 M
  CellTiter-Glo (ATP): 322880 and 295000 and 291440
[1]; A549 sgRBX1-1, HQ461 1.04e-6 M
  CellTiter-Glo (ATP): 306380 and 286480 and 313050
[1]; A549 sgRBX1-1, HQ461 1.84e-6 M
  CellTiter-Glo (ATP): 225540 and 237470 and 230500
[1]; A549 sgRBX1-1, HQ461 5e-5 M
  CellTiter-Glo (ATP): 43060 and 31790 and 35930
[1]; A549 sgRBX1-1, HQ461 1.16E-07 M
  CellTiter-Glo (ATP): 288560 and 290760 and 286800
[1]; A549 sgRBX1-1, HQ461 2.04E-07 M
  CellTiter-Glo (ATP): 262410 and 264720 and 241220
[1]; A549 sgRBX1-1, HQ461 3.52E-07 M
  CellTiter-Glo (ATP): 292190 and 292940 and 303380
[1]; A549 sgRBX1-1, HQ461 6.08E-07 M
  CellTiter-Glo (ATP): 295780 and 267950 and 240730
[1]; A549 sgRBX1-1, HQ461 6.80E-08 M
  CellTiter-Glo (ATP): 297310 and 267380 and 272530
[1]; A549 sgUBE2G1-1, HQ461 1.04e-6 M
  CellTiter-Glo (ATP): 312980 and 335750 and 320370
[1]; A549 sgUBE2G1-1, HQ461 1.84e-6 M
  CellTiter-Glo (ATP): 297250 and 326340 and 338010
[1]; A549 sgUBE2G1-1, HQ461 2.88e-5 M
  CellTiter-Glo (ATP): 51820 and 43500 and 48750
[1]; A549 sgUBE2G1-1, HQ461 5e-5 M
  CellTiter-Glo (ATP): 35610 and 27850 and 21460
[1]; A549 sgUBE2G1-1, HQ461 1.16E-07 M
  CellTiter-Glo (ATP): 299870 and 310810 and 340290
[1]; A549 sgUBE2G1-1, HQ461 2.04E-07 M
  CellTiter-Glo (ATP): 303360 and 350750 and 286460
[1]; A549 sgUBE2G1-1, HQ461 3.52E-07 M
  CellTiter-Glo (ATP): 341410 and 309550 and 308880
[1]; A549 sgUBE2G1-1, HQ461 6.08E-07 M
  CellTiter-Glo (ATP): 297850 and 310080 and 327760
[1]; A549 sgUBE2G1-1, HQ461 6.80E-08 M
  CellTiter-Glo (ATP): 296160 and 325630 and 360740
[1]; A549, independent second sgRNA, Figure 1-figure supplement 2D, read-out: IC50 on the viability of A549 cells expressing sgRNA targeting DDB1
  IC50: > 28.8 µM
[1]; A549, independent second sgRNA, Figure 1-figure supplement 2D, read-out: IC50 on the viability of A549 cells expressing sgRNA targeting RBX1
  IC50: 11 µM
[1]; A549, independent second sgRNA, Figure 1-figure supplement 2D, read-out: IC50 on the viability of A549 cells expressing sgRNA targeting UBE2G1
  IC50: 13.6 µM
[1]; A549, sgDDB1, Figure 1D, read-out: IC50 on the viability of A549 cells expressing sgRNA targeting DDB1
  IC50: > 28.8 µM
[1]; A549, sgNTC, Figure 1D, read-out: IC50 on the viability of A549 cells expressing non-targeting control (NTC)
  IC50: 2.3 µM
[1]; A549, sgRBX1, Figure 1D, read-out: IC50 on the viability of A549 cells expressing sgRNA targeting RBX1
  IC50: 10.9 µM
[1]; A549, sgUBE2G1, Figure 1D, read-out: IC50 on the viability of A549 cells expressing sgRNA targeting UBE2G1
  IC50: 11.9 µM
[2]; CDK12 G731E, read-out: IC50 on the viability of A549 cells stably expressing G731E mutant CDK12
  IC50: 16.9 µM
[2]; CDK12 G731R, read-out: IC50 on the viability of A549 cells stably expressing G731R mutant CDK12
  IC50: 22.9 µM
[2]; read-out: IC50 on the viability of A549 cells stably expressing wild-type CDK12
  IC50: 1.3 µM
[3]
  IC50: 25.2 to 36.5 µM
[4]; 10 µM
  Dmax (10 μM), percentage of CCNK degradation relative to DMSO control: 86.0%
[4]; 293T, read-out: DC50 (half maximal CCNK-degradation concentration)
  DC50: 0.132 µM
